Measurements published in PubChem BioAssay (NCI).
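Growth conditions: 96-well plates. Treatment: test compound, 48 hours, 5 concentrations. Analysis: linear interpolation between bracketing concentrations; unreached endpoints set to highest concentration. GI50 marks 50% less growth. Definition used: TGI = concentration required for complete inhibition of growth.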

Assays:
Assay in all cases: DTP human tumour cell line panel, 48 h; in the data active = GI50 below about 0.43 µM; inactive = the rest
SNB-75 CNS = tested on: SNB-75 CNS
SK-MEL-2 melanoma = tested on: SK-MEL-2 melanoma
RXF 393 renal = tested on: RXF 393 renal
SF-539 CNS = tested on: SF-539 CNS
OVCAR-4 ovarian = tested on: OVCAR-4 ovarian
OVCAR-8 ovarian = tested on: OVCAR-8 ovarian
OVCAR-3 ovarian = tested on: OVCAR-3 ovarian
HCC-2998 colon = tested on: HCC-2998 colon
786-0 renal = tested on: 786-0 renal
HCT-116 colon = tested on: HCT-116 colon
COLO 205 colon = tested on: COLO 205 colon
A549 NSCLC = tested on: A549 NSCLC
K-562 leukemia = tested on: K-562 leukemia
IGROV1 ovarian = tested on: IGROV1 ovarian
LOX IMVI melanoma = tested on: LOX IMVI melanoma
MDA-MB-435 = tested on: MDA-MB-435
ACHN renal = tested on: ACHN renal
CCRF-CEM leukemia = tested on: CCRF-CEM leukemia
BT-549 breast = tested on: BT-549 breast
SF-268 CNS = tested on: SF-268 CNS
UACC-257 melanoma = tested on: UACC-257 melanoma
TK-10 renal = tested on: TK-10 renal
SNB-19 CNS = tested on: SNB-19 CNS
HT29 colon = tested on: HT29 colon
HCT-15 colon = tested on: HCT-15 colon
NCI-H23 lung = tested on: NCI-H23 lung
MDA-MB-231 breast = tested on: MDA-MB-231 breast
SK-OV-3 ovarian = tested on: SK-OV-3 ovarian
KM12 colon = tested on: KM12 colon
T-47D breast = tested on: T-47D breast
SW-620 colon = tested on: SW-620 colon
SK-MEL-28 melanoma = tested on: SK-MEL-28 melanoma
DU-145 prostate = tested on: DU-145 prostate
SF-295 CNS = tested on: SF-295 CNS
M14 melanoma = tested on: M14 melanoma
NCI/ADR-RES ovarian = tested on: NCI/ADR-RES ovarian
HOP-62 NSCLC = tested on: HOP-62 NSCLC
PC-3 prostate = tested on: PC-3 prostate
MOLT-4 leukemia = tested on: MOLT-4 leukemia
HS 578T breast = tested on: HS 578T breast
NCI-H460 lung = tested on: NCI-H460 lung
CAKI-1 renal = tested on: CAKI-1 renal
UO-31 renal = tested on: UO-31 renal
SN12C renal = tested on: SN12C renal
SK-MEL-5 melanoma = tested on: SK-MEL-5 melanoma
NCI-H226 lung = tested on: NCI-H226 lung
NCI-H522 lung = tested on: NCI-H522 lung
OVCAR-5 ovarian = tested on: OVCAR-5 ovarian
A498 renal = tested on: A498 renal
U251 CNS = tested on: U251 CNS
EKVX NSCLC = tested on: EKVX NSCLC
UACC-62 melanoma = tested on: UACC-62 melanoma
SR leukemia = tested on: SR leukemia
RPMI-8226 leukemia = tested on: RPMI-8226 leukemia
HOP-92 NSCLC = tested on: HOP-92 NSCLC
MCF7 breast = tested on: MCF7 breast
HL-60(TB) leukemia = tested on: HL-60(TB) leukemia
MALME-3M melanoma = tested on: MALME-3M melanoma

ClCC[N+]12CC[N+](CCCl)(CC1)C2 (tested in a mixture with another compound)
inactive: GI50 (SNB-75 CNS) 58.6 µM | GI50 (SK-MEL-2 melanoma) 43.2 µM | GI50 (RXF 393 renal) 85.4 µM

ClCc1ccc(Cn2cnc3c(Cl)nc(Cl)nc32)cc1
9.63 µM: TGI (NCI-H226 lung)
29.6 µM: TGI (SK-OV-3 ovarian)
43.5 µM: TGI (SK-MEL-2 melanoma)
37.1 µM: TGI (A549 NSCLC)
4.33 µM: TGI (OVCAR-3 ovarian)
18.8 µM: TGI (OVCAR-4 ovarian)
5.28 µM: TGI (ACHN renal)
3.6 µM: TGI (HCT-116 colon)
20.8 µM: TGI (SN12C renal)
46.8 µM: TGI (NCI-H522 lung)
17.8 µM: TGI (DU-145 prostate)
5.77 µM: TGI (HS 578T breast)
9.32 µM: TGI (SNB-75 CNS)
5.44 µM: TGI (T-47D breast)
23.2 µM: TGI (NCI-H23 lung)
4.53 µM: TGI (CCRF-CEM leukemia)
35.5 µM: TGI (UO-31 renal)
29.8 µM: TGI (BT-549 breast)
34.5 µM: TGI (OVCAR-5 ovarian)
27.4 µM: TGI (MOLT-4 leukemia)
inactive: GI50 (SF-539 CNS) 17.1 µM | GI50 (OVCAR-4 ovarian) 4910 nM | GI50 (OVCAR-8 ovarian) 20 µM | GI50 (OVCAR-3 ovarian) 1990 nM | GI50 (HCC-2998 colon) 10.3 µM | GI50 (SNB-75 CNS) 3.13 µM | GI50 (786-0 renal) 14 µM | GI50 (SK-MEL-2 melanoma) 19.8 µM | GI50 (HCT-116 colon) 1720 nM | GI50 (COLO 205 colon) 3450 nM | GI50 (A549 NSCLC) 18.6 µM | GI50 (K-562 leukemia) 23.3 µM | GI50 (IGROV1 ovarian) 15.3 µM | GI50 (LOX IMVI melanoma) 2060 nM | GI50 (MDA-MB-435) 12.6 µM | GI50 (ACHN renal) 2350 nM | GI50 (CCRF-CEM leukemia) 1940 nM | GI50 (BT-549 breast) 15.8 µM | GI50 (SF-268 CNS) 2510 nM | GI50 (UACC-257 melanoma) 16.3 µM | GI50 (TK-10 renal) 6.68 µM | GI50 (SNB-19 CNS) 2500 nM | GI50 (HT29 colon) 2900 nM | GI50 (HCT-15 colon) 1860 nM | GI50 (NCI-H23 lung) 7.62 µM | GI50 (MDA-MB-231 breast) 1810 nM | GI50 (SK-OV-3 ovarian) 13.3 µM | GI50 (KM12 colon) 1800 nM | GI50 (T-47D breast) 2180 nM | GI50 (SW-620 colon) 3.79 µM | GI50 (SK-MEL-28 melanoma) 2690 nM | GI50 (DU-145 prostate) 5.69 µM | GI50 (SF-295 CNS) 7.2 µM | GI50 (M14 melanoma) 10.8 µM | GI50 (NCI/ADR-RES ovarian) 16.5 µM | GI50 (HOP-62 NSCLC) 2190 nM | GI50 (RXF 393 renal) 20.9 µM | GI50 (PC-3 prostate) 2700 nM | GI50 (MOLT-4 leukemia) 10.4 µM | GI50 (HS 578T breast) 2130 nM | GI50 (NCI-H460 lung) 2390 nM | GI50 (CAKI-1 renal) 9.17 µM | GI50 (UO-31 renal) 19.3 µM | GI50 (SN12C renal) 7.18 µM | GI50 (SK-MEL-5 melanoma) 6.49 µM | GI50 (NCI-H226 lung) 3550 nM | GI50 (NCI-H522 lung) 22.4 µM | GI50 (OVCAR-5 ovarian) 18.2 µM | GI50 (A498 renal) 12.1 µM | GI50 (U251 CNS) 2050 nM | GI50 (EKVX NSCLC) 17.3 µM | GI50 (UACC-62 melanoma) 2060 nM
41.5 µM: TGI (RXF 393 renal)
3.63 µM: TGI (MDA-MB-231 breast)
3.77 µM: TGI (HCT-15 colon)
33.5 µM: TGI (UACC-257 melanoma)
30.4 µM: TGI (IGROV1 ovarian)
31.8 µM: TGI (EKVX NSCLC)
6.99 µM: TGI (SK-MEL-28 melanoma)
19.2 µM: TGI (SK-MEL-5 melanoma)
31.1 µM: TGI (SF-539 CNS)
66.5 µM: TGI (K-562 leukemia)
4.13 µM: TGI (LOX IMVI melanoma)
25.1 µM: TGI (MDA-MB-435) | TGI (A498 renal)
24 µM: TGI (HCC-2998 colon)
3.88 µM: TGI (U251 CNS)
24.1 µM: TGI (M14 melanoma)
4.92 µM: TGI (NCI-H460 lung)
5.42 µM: TGI (SF-268 CNS)
4.4 µM: TGI (UACC-62 melanoma)
7.04 µM: TGI (SNB-19 CNS)
20.3 µM: TGI (TK-10 renal)
21.3 µM: TGI (CAKI-1 renal)
5.09 µM: TGI (HOP-62 NSCLC)
3.23 µM: TGI (KM12 colon)
38.3 µM: TGI (OVCAR-8 ovarian)
29.5 µM: TGI (786-0 renal)
7.17 µM: TGI (PC-3 prostate)
19.5 µM: TGI (SF-295 CNS)
17.3 µM: TGI (SW-620 colon)
> 100 µM: TGI (COLO 205 colon) | TGI (HT29 colon) | TGI (NCI/ADR-RES ovarian)

CCCNc1nc2ccccc2c2c1S(=O)(=O)c1ccc(Cl)cc1C2=O
> 50 µM: TGI (SR leukemia) | TGI (OVCAR-4 ovarian) | TGI (OVCAR-8 ovarian) | TGI (786-0 renal) | TGI (SK-MEL-2 melanoma) | TGI (HCT-116 colon) | TGI (COLO 205 colon) | TGI (A549 NSCLC) | TGI (K-562 leukemia) | TGI (IGROV1 ovarian) | TGI (LOX IMVI melanoma) | TGI (MDA-MB-435) | TGI (MCF7 breast) | TGI (BT-549 breast) | TGI (SF-268 CNS) | TGI (HL-60(TB) leukemia) | TGI (UACC-257 melanoma) | TGI (TK-10 renal) | TGI (SNB-19 CNS) | TGI (HT29 colon) | TGI (HCT-15 colon) | TGI (NCI-H23 lung) | TGI (KM12 colon) | TGI (T-47D breast) | TGI (SK-MEL-28 melanoma) | TGI (DU-145 prostate) | TGI (SF-295 CNS) | TGI (M14 melanoma) | TGI (NCI/ADR-RES ovarian) | TGI (HOP-62 NSCLC) | TGI (PC-3 prostate) | TGI (MOLT-4 leukemia) | TGI (HS 578T breast) | TGI (CAKI-1 renal) | TGI (MALME-3M melanoma) | TGI (UO-31 renal) | TGI (SK-MEL-5 melanoma) | TGI (NCI-H226 lung) | TGI (NCI-H522 lung) | TGI (U251 CNS) | TGI (EKVX NSCLC) | TGI (UACC-62 melanoma)
3.98 µM: TGI (CCRF-CEM leukemia)
16.8 µM: TGI (A498 renal)
3.63 µM: TGI (SF-539 CNS)
2860 nM: TGI (RPMI-8226 leukemia)
4.47 µM: TGI (NCI-H460 lung)
475 nM: TGI (HOP-92 NSCLC)
34.4 µM: TGI (HCC-2998 colon)
41.1 µM: TGI (SK-OV-3 ovarian)
1.57 µM: TGI (RXF 393 renal)
3.1 µM: TGI (OVCAR-3 ovarian)
inactive: GI50 (SF-539 CNS) 1.26 µM | GI50 (SR leukemia) 790 nM | GI50 (OVCAR-4 ovarian) 950 nM | GI50 (OVCAR-8 ovarian) 1.58 µM | GI50 (OVCAR-3 ovarian) 944 nM | GI50 (HCC-2998 colon) 1.62 µM | GI50 (786-0 renal) 1.7 µM | GI50 (SK-MEL-2 melanoma) 1.92 µM | GI50 (COLO 205 colon) 2100 nM | GI50 (A549 NSCLC) 1.99 µM | GI50 (K-562 leukemia) 0.45 µM | GI50 (IGROV1 ovarian) 1.46 µM | GI50 (LOX IMVI melanoma) 1280 nM | GI50 (MDA-MB-435) 1.11 µM | GI50 (MCF7 breast) 1090 nM | GI50 (BT-549 breast) 0.734 µM | GI50 (SF-268 CNS) 1350 nM | GI50 (HL-60(TB) leukemia) 1490 nM | GI50 (UACC-257 melanoma) 2.15 µM | GI50 (TK-10 renal) 3.14 µM | GI50 (SNB-19 CNS) 1400 nM | GI50 (HT29 colon) 1650 nM | GI50 (HCT-15 colon) 728 nM | GI50 (NCI-H23 lung) 1.66 µM | GI50 (SK-OV-3 ovarian) 3.06 µM | GI50 (KM12 colon) 1490 nM | GI50 (T-47D breast) 1350 nM | GI50 (SK-MEL-28 melanoma) 1610 nM | GI50 (DU-145 prostate) 1.57 µM | GI50 (SF-295 CNS) 1.67 µM | GI50 (M14 melanoma) 0.625 µM | GI50 (NCI/ADR-RES ovarian) 1.37 µM | GI50 (HOP-62 NSCLC) 1770 nM | GI50 (MOLT-4 leukemia) 1.54 µM | GI50 (HS 578T breast) 1210 nM | GI50 (NCI-H460 lung) 1300 nM | GI50 (CAKI-1 renal) 1.46 µM | GI50 (MALME-3M melanoma) 1460 nM | GI50 (UO-31 renal) 1.11 µM | GI50 (SN12C renal) 0.648 µM | GI50 (SK-MEL-5 melanoma) 1.51 µM | GI50 (NCI-H226 lung) 1510 nM | GI50 (NCI-H522 lung) 1.17 µM | GI50 (A498 renal) 1.51 µM | GI50 (U251 CNS) 1600 nM | GI50 (EKVX NSCLC) 1.38 µM | GI50 (UACC-62 melanoma) 1280 nM
3.24 µM: TGI (SN12C renal)
active: GI50 (HCT-116 colon) 425 nM | GI50 (RPMI-8226 leukemia) 345 nM | GI50 (HOP-92 NSCLC) 89.9 nM | GI50 (CCRF-CEM leukemia) 400 nM | GI50 (RXF 393 renal) 0.263 µM | GI50 (PC-3 prostate) 225 nM
